The source made the active and inactive calls. No cut-off for these calls is given here.

Data set [1] concerns Rattus norvegicus. In words: Antiulcer activity in Sprague-Dawley rat assessed as inhibition of cold-restraint stress-induced gastric erosion at 100 mg/kg, po after 3 hrs. The data set is classed as functional, organism-based. Details: dose 100 mg/kg. The following applies: Stomach.
The subject of data set [2] is Rattus norvegicus. The data set can be described thus: Antisecretory activity in pylorus-ligated Sprague-Dawley rat assessed as inhibition of gastric juice secretion at 30 mg/kg administered intraduodenally after 4 hrs by potentiographic titration analysis relative to control. It is filed as functional, organism-based. More on the design: dose 30 mg/kg.
In data set [3] the test system is Rattus norvegicus. In words: Antisecretory activity in pylorus-ligated Sprague-Dawley rat assessed as inhibition of gastric juice secretion at 10 mg/kg administered intraduodenally after 4 hrs by potentiographic titration analysis. The data set is classed as functional, organism-based. Details: dose 10 mg/kg.
Data set [4] has as its system Rattus norvegicus. The data set can be described thus: Antiulcer activity in Sprague-Dawley rat assessed as inhibition of cold-restraint stress-induced gastric erosion at 30 mg/kg, po after 3 hrs. It is filed as functional, organism-based. The following applies: Stomach. More on the design: dose 30 mg/kg.
Data set [5] deals with Rattus norvegicus. The data set can be described thus: Toxicity in po dosed Sprague-Dawley rat assessed as mortality. The data set is classed as organism-based. The settings on record: in vivo.

With `CS/C(=N/C#N)NC1CCCc2cc(C)cnc21` (configuration not stated), in the data set with Rattus norvegicus [1], the result was inactive. As to `O=C(NC(=S)N1CCc2cccnc21)c1ccccc1`, the outcome in the data set on Rattus norvegicus [1] and with Rattus norvegicus [2] was inactive. On to `S=C1NCc2cccnc2N1`, for which the outcome in the data set on Rattus norvegicus [1] and in the data set on Rattus norvegicus [2] was inactive. Take `CNC(=S)NC1CCCc2cc(C)cnc21` (configuration not stated): the outcome with Rattus norvegicus [1] and in the data set with Rattus norvegicus [3] was Active. For the compound `CNC(=S)N1CCCc2ncccc21`, the outcome with Rattus norvegicus [4] and in the data set with Rattus norvegicus [2] was Active. Turning to `Cc1cnc2c(c1)C(NC(N)=S)CCC2` (configuration not stated), in the data set on Rattus norvegicus [1], the outcome was inactive. As for `CN/C(=N/C#N)NC1CCCc2cc(C)cnc21` (configuration not stated), the result in the data set on Rattus norvegicus [1] and in the data set on Rattus norvegicus [2] was inactive. On to `CCCCNC(=S)N1CCc2cccnc21`, for which the outcome with Rattus norvegicus [1] and with Rattus norvegicus [2] was inactive. For the compound `CNC(=S)N1CCc2cccnc21`, the result in the data set with Rattus norvegicus [4] and in the data set on Rattus norvegicus [2] was Active. Consider `NC(=S)N1CCc2cccnc21`, for which, in the data set with Rattus norvegicus [5], the Activity entry is “Toxic”. In addition, the outcome with Rattus norvegicus [3] was Active. Regarding `CN/C(=N/C(N)=O)NC1CCCc2cc(C)cnc21` (configuration not stated), the result in the data set with Rattus norvegicus [1] and with Rattus norvegicus [2] was inactive.

As for `NC(=S)N1CCCCc2cccnc21`, the outcome in the data set with Rattus norvegicus [1] was inactive. In the data set on Rattus norvegicus [2], the result was Active. For `CNC(=S)N1CCCc2cccnc21`, the result in the data set on Rattus norvegicus [4] and with Rattus norvegicus [2] was Active. `Cc1cnc2c(c1)C(NC(=S)Nc1ccccc1)CCC2` (configuration not stated): the outcome with Rattus norvegicus [1] was inactive. The outcome in the data set on Rattus norvegicus [2] was Active.

As to `CN/C(=N/C(N)=S)NC1CCCc2cc(C)cnc21` (configuration not stated), in the data set on Rattus norvegicus [1], the result was Active. Moreover, the result with Rattus norvegicus [2] was inactive. In the case of `CNC(=S)NC(C)C1CCCc2cc(C)cnc21` (configuration not stated), the result in the data set with Rattus norvegicus [1] and with Rattus norvegicus [2] was inactive.

As to `CNC(=S)N1CCCCc2cccnc21`, the outcome in the data set with Rattus norvegicus [1] was inactive. In addition, the result in the data set on Rattus norvegicus [3] was Active. For the compound `Cc1cnc2c(c1)CCCC2NC(N)=S` (configuration not stated), the result in the data set on Rattus norvegicus [1] and in the data set with Rattus norvegicus [2] was Active. `CNC(=S)NC1CCCc2ncc(C)cc21` (configuration not stated): the outcome in the data set with Rattus norvegicus [1] and in the data set with Rattus norvegicus [2] was inactive. `Cc1cnc2c(c1)C(NC(=S)NC(=O)c1ccccc1)CCC2` (configuration not stated): the Activity result in the data set with Rattus norvegicus [5] is “Toxic”. Moreover, the outcome with Rattus norvegicus [2] was inactive. With `CNC(=S)N1CCc2ncc(C)cc2C1`, the result in the data set with Rattus norvegicus [1] was Active. Further, in the data set with Rattus norvegicus [2], the result was inactive. Take `Cc1cnc2c(c1)CCCC2NC(=S)NC(=O)c1ccccc1` (configuration not stated): the outcome with Rattus norvegicus [1] and in the data set with Rattus norvegicus [2] was inactive.

The values are drawn from ChEMBL document CHEMBL3243927, “5,6,7,8-Tetrahydroquinolines. 5. Antiulcer and antisecretory activity of 5,6,7,8-tetrahydroquinolinethioureas and related heterocycles” (J Med Chem, 1977).
